Tests used:
[1] = target: T1, wt human TYK2, catalytic site (Homo sapiens, UniProt P29597); assay: HTRF KinEASE assay, TYK2; assay type: biochemical; settings: 1 μM ATP; read-out: IC50, Activity Toward TYK2
T1 construct: wt human TYK2, catalytic site; purchased SignalChem
T1 sequence (P29597 897-1176 limits assumed): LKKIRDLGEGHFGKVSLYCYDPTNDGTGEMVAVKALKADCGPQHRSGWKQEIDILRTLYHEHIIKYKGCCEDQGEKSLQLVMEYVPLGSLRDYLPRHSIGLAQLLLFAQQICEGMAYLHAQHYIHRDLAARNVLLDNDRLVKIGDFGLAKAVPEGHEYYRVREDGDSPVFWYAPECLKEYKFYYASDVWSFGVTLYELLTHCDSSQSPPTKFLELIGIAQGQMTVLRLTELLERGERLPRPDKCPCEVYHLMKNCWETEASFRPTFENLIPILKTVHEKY
Method: (§1) Basic protocol for HTRF KinEASE assay (Cisbio/FRA) inhibitor studies involved two steps: • Enzymatic step: Addition of 4 μL of test compound in corresponding DMSO dilutions, 4 μL of kinase/substrate mixture, 2 μL of ATP into 384 well small volume plates. Incubation for at least 30 minutes at room temperature. • Detection step: Addition of 5 μL antibody and 5 μL streptavidin-XL665, read plate after 60 minutes. Data analysis of emission ratios according KinEASE assay protocol.
(§2) Kinase and assay components were adjusted to final concentrations according to kit protocol. For TYK2: 2 nM wt human TYK2, catalytic site (SignalChem/CAN), 1 μM HTRF KinEASE-TK Substrate-biotin, 1 μM ATP in 1× Kinase Buffer. For JAK1: 4 nM wt human JAK1, catalytic site (ThermoFisher/USA), 1 μM HTRF KinEASE-TK Substrate-biotin, 2.5 μM ATP in 1× Kinase Buffer. For JAK2: 1 nM wt human JAK2, catalytic site (SignalChem/CAN), 1 μM HTRF KinEASE-TK Substrate-biotin, 100 μM ATP in 1× Kinase Buffer.
as §2

[2] = target: T2, wt human JAK1, catalytic site (Homo sapiens, UniProt P23458); assay: HTRF KinEASE assay, JAK1; assay type: biochemical; settings: 2.5 μM ATP; read-out: IC50, Activity Toward JAK1
T2 construct: wt human JAK1, catalytic site; purchased ThermoFisher
T2 sequence (P23458 875-1153 limits assumed): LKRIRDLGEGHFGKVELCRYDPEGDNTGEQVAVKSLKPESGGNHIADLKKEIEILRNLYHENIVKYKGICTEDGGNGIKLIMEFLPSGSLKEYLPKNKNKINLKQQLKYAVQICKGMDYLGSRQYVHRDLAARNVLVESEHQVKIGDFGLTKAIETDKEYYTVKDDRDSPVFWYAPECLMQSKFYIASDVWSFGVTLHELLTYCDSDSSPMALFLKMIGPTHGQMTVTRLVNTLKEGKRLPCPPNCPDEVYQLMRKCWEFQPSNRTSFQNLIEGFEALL
Method: as §1
as §2, with “For JAK1: 4 nM wt human JAK1, catalytic site (ThermoFisher/USA), 1 μM HTRF KinEASE-TK Substrate-biotin, 2.5 μM ATP in 1× Kinase Buffer.” left out
as §2, with “For JAK1: 4 nM wt human JAK1, catalytic site (ThermoFisher/USA), 1 μM HTRF KinEASE-TK Substrate-biotin, 2.5 μM ATP in 1× Kinase Buffer.” left out

| IC50 [1] [nM] | IC50 [2] [nM] | SMILES |
| --- | --- | --- |
| 100 to 1000 | 100 to 1000 | CN1CCN(C(=O)c2ccc(Nc3nn(-c4c(Cl)cccc4Cl)nc3C(N)=O)nc2)CC1 [compound 127, 2-(2,6-dichlorophenyl)-5-((5-(4-methylpiperazine-1-carbonyl)pyridin-2-yl)amino)-2H-1,2,3-triazole-4-carboxamide] |
| 10 to 100 | 100 to 1000 | NC(=O)c1nn(-c2c(Cl)cccc2Cl)cc1Nc1ccc(-n2cnc(Cl)n2)cc1 [compound 79, 4-((4-(3-chloro-1H-1,2,4-triazol-1-yl)phenyl)amino)-1-(2,6-dichlorophenyl)-1H-pyrazole-3-carboxamide] |
| 10 to 100 | 10 to 100 | CCn1cc(C(F)(F)F)nc1-c1ccc(Nc2cn(-c3c(Cl)cccc3Cl)nc2C(N)=O)cc1 [compound 293, 1-(2,6-dichlorophenyl)-4-((4-(1-ethyl-4-(trifluoromethyl)-1H-imidazol-2-yl)phenyl)amino)-1H-pyrazole-3-carboxamide] |
| < 10 | 100 to 1000 | NC(=O)c1nn(-c2c(Cl)cccc2Cl)cc1Nc1ccc(C(=O)N2CCCCCC2)cc1 [compound 95, 4-((4-(azepane-1-carbonyl)phenyl)amino)-1-(2,6-dichlorophenyl)-1H-pyrazole-3-carboxamide] |
|  | 100 to 1000 | Cc1cn(-c2ccc(Nc3cn(-c4c(Cl)cccc4Cl)nc3C(N)=O)cc2)nc1C [compound 217, 1-(2,6-dichlorophenyl)-4-((4-(3,4-dimethyl-1H-pyrazol-1-yl)phenyl)amino)-1H-pyrazole-3-carboxamide] |
|  | 100 to 1000 | CCc1nc(C(F)(F)F)nn1-c1ccc(Nc2nn(-c3c(Cl)cccc3Cl)nc2C(N)=O)cc1 [compound 121] |
|  | 100 to 1000 | NC(=O)c1nn(-c2c(Cl)cccc2Cl)cc1Nc1ccc(-n2nncc2C(F)(F)F)cn1 [compound 437, 1-(2,6-dichlorophenyl)-4-((5-(5-(trifluoromethyl)-1H-1,2,3-triazol-1-yl)pyridin-2-yl)amino)-1H-pyrazole-3-carboxamide] |
|  | 100 to 1000 | NC(=O)c1nn(-c2c(Cl)cccc2Cl)cc1Nc1ccc(-n2ccc(Cl)n2)cc1 [compound 76, 4-((4-(3-chloro-1H-pyrazol-1-yl)phenyl)amino)-1-(2,6-dichlorophenyl)-1H-pyrazole-3-carboxamide] |
| 100 to 1000 |  | NC(=O)c1nn(-c2c(Cl)cccc2Cl)cc1Nc1ccc(-n2cncn2)nc1 [compound 337, 4-((6-(1H-1,2,4-triazol-1-yl)pyridin-3-yl)amino)-1-(2,6-dichlorophenyl)-1H-pyrazole-3-carboxamide] |

The remaining lines, values behind:

| SMILES | IC50 [1] [nM] | IC50 [2] [nM] |
| --- | --- | --- |
| CCc1cnncc1-c1ccc(Nc2cn(-c3c(Cl)cccc3Cl)nc2C(N)=O)cn1 [compound 351, 1-(2,6-dichlorophenyl)-4-((6-(5-ethylpyridazin-4-yl)pyridin-3-yl)amino)-1H-pyrazole-3-carboxamide] | 10 to 100 | 100 to 1000 |
| NC(=O)c1nn(-c2c(Cl)cccc2Cl)nc1Nc1ccc(C(=O)N2CCCC2)cn1 [compound 137, 2-(2,6-dichlorophenyl)-5-((5-(pyrrolidine-1-carbonyl)pyridin-2-yl)amino)-2H-1,2,3-triazole-4-carboxamide] | 10 to 100 | 10 to 100 |
| NC(=O)c1nn(-c2c(Cl)cccc2Cl)cc1Nc1ccc(CC(=O)N2CCOCC2)nc1 [compound 440, 1-(2,6-dichlorophenyl)-4-((6-(2-morpholino-2-oxoethyl)pyridin-3-yl)amino)-1H-pyrazole-3-carboxamide] | 100 to 1000 | 10 to 100 |
| Cc1ccc(=O)n(-c2ccc(Nc3cn(-c4c(Cl)cccc4Cl)nc3C(N)=O)cc2)n1 [compound 72, 1-(2,6-dichlorophenyl)-4-((4-(3-methyl-6-oxopyridazin-1(6H)-yl)phenyl)amino)-1H-pyrazole-3-carboxamide] | 10 to 100 | 100 to 1000 |
| N=S1(=O)CCN(C(=O)c2ccc(Nc3cn(-c4c(Cl)cccc4Cl)nc3C(N)=O)cc2)CC1 [compound 468, 1-(2,6-dichlorophenyl)-4-((4-(1-imino-1-oxidothiomorpholine-4-carbonyl)phenyl)amino)-1H-pyrazole-3-carboxamide] | < 10 | < 10 |
| CCc1c(C)nn(-c2ccc(Nc3cn(-c4c(Cl)cccc4Cl)nc3C(N)=O)cc2)c1C [compound 222, 1-(2,6-dichlorophenyl)-4-((4-(4-ethyl-3,5-dimethyl-1H-pyrazol-1-yl)phenyl)amino)-1H-pyrazole-3-carboxamide] |  | 100 to 1000 |
| NC(=O)c1nn(-c2c(Cl)cccc2Cl)nc1Nc1ccc(-n2ncc3c2CCOC3)cc1 [compound 110, 2-(2,6-Dichloro-phenyl)-5-[4-(6,7-dihydro-4H-pyrano[4,3-c]pyrazol-1-yl)-phenylamino]-2H-[1,2,3]triazole-4-carboxylic acid amide] | 10 to 100 | 10 to 100 |
| CS(=O)(=O)n1cc(Nc2nn(-c3c(Cl)cccc3Cl)nc2C(N)=O)cn1 [Compound No. 172, 2-(2,6-dichlorophenyl)-5-((1-(methylsulfonyl)-1H-pyrazol-4-yl)amino)-2H-1,2,3-triazole-4-carboxamide] |  | 100 to 1000 |
| CCc1cccnc1-c1ccc(Nc2cn(-c3c(Cl)cccc3Cl)nc2C(N)=O)cc1 [compound 234, 1-(2,6-dichlorophenyl)-4-((4-(3-ethylpyridin-2-yl)phenyl)amino)-1H-pyrazole-3-carboxamide] |  | 100 to 1000 |
| CCNC(=O)c1ccc(Nc2cn(-c3c(F)cccc3F)nc2C(N)=O)cn1 [compound 24, 5-((3-carbamoyl-1-(2,6-difluorophenyl)-1H-pyrazol-4-yl)amino)-N-ethylpicolinamide] | 100 to 1000 |  |
| CN(C)CCn1cc(C(F)(F)F)nc1-c1ccc(Nc2cn(-c3c(Cl)cccc3Cl)nc2C(N)=O)cc1 [compound 306, 1-(2,6-dichlorophenyl)-4-((4-(1-(2-(dimethylamino)ethyl)-4-(trifluoromethyl)-1H-imidazol-2-yl)phenyl)amino)-1H-pyrazole-3-carboxamide] | 10 to 100 |  |
| NC(=O)c1nn(-c2c(Cl)cccc2Cl)cc1Nc1ccc(N2CCCC2=O)nc1 [compound 345, 1-(2,6-dichlorophenyl)-4-((6-(2-oxopyrrolidin-1-yl)pyridin-3-yl)amino)-1H-pyrazole-3-carboxamide] | 100 to 1000 |  |
| CCOc1cccc(Cl)c1-n1cc(Nc2cnn(C)c2)c(C(N)=O)n1 [compound 372, 1-(2-chloro-6-ethoxyphenyl)-4-((1-methyl-1H-pyrazol-4-yl)amino)-1H-pyrazole-3-carboxamide] | 100 to 1000 |  |
| NC(=O)c1nn(-c2c(Cl)cccc2Cl)nc1Nc1ccc(-n2nncc2C(F)(F)F)cc1 [compound 155, 2-(2,6-dichlorophenyl)-5-((4-(5-(trifluoromethyl)-1H-1,2,3-triazol-1-yl)phenyl)amino)-2H-1,2,3-triazole-4-carboxamide] |  | 10 to 100 |
| Cc1cc(C(F)(F)F)nn1-c1ccc(Nc2cn(-c3c(Cl)cccc3Cl)nc2C(N)=O)cc1 [compound 257, 1-(2,6-dichlorophenyl)-4-((4-(5-methyl-3-(trifluoromethyl)-1H-pyrazol-1-yl)phenyl)amino)-1H-pyrazole-3-carboxamide] | 100 to 1000 |  |
| NC(=O)c1nn(-c2c(Cl)cccc2Cl)cc1Nc1ccc(-n2c(=O)sc3ccccc32)cc1 [compound 201, 1-(2,6-dichlorophenyl)-4-((4-(2-oxobenzo[d]thiazol-3(2H)-yl)phenyl)amino)-1H-pyrazole-3-carboxamide] | 100 to 1000 |  |

From patent US20230373985A1 (Origenis Gmbh, priority 2020, published 2023)
